One assay deals with KRAS(G12C) (Homo sapiens, UniProt P01116, G12C). As to the kind of experiment: KRAS(G12C)/SOS1 homogeneous time-resolved fluorescence (HTRF) assay. Also on record: purchased Cisbio 63ADK000CB16PEG. Particulars: absence of GTP, 4° C. for 3 hr, read-out: KRAS (G12C) binding. As for the experimental part:
KRAS(G12C)/SOS1 Homogeneous Time-Resolved Fluorescence (HTRF) Assay
Binding of test compounds to KRAS(G12C) protein, which in turn blocks KRAS(G12C) interaction with the SOS1 protein, was measured in the absences of GTP by homogeneous time-resolved fluorescence (HTRF) using the KRAS-G12C/SOS1 Binding Assay Kit (Cisbio, #63ADK000CB16PEG), following the manufacturer's instructions, except as noted. 3-fold serial dilutions of each test compound were prepared ranging from […] to 1.02 nM. The test compound was mixed and incubated with reaction components, incubated in a sealed plate at 4° C. for 3 hr and fluorescence was measured using a PerkinElmer Envision plate reader.
For orientation: In TR-FRET formats the signal depends on donor and acceptor labels being close together.

The next assay deals with T1, HSP90a protein (Homo sapiens, UniProt P07900).
T1 construct: purchased BPS Bioscience 50298
As to the kind of experiment: HSP90α-binding fluorescent polarization (FP) assay, BODIPY-labeled RNK04010 probe. Particulars: FP competition with RNK04010 (BODIPY-labeled), 5 nM, 300 min at 25° C. The procedure, abridged:
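Displacement of a 5 nM fluorescent HSP90 ligand from the N-terminal HSP90a domain by FP. Incubation ran at 25° C: 120 min for the FITC-geldanamycin tracer, 300 min for the BODIPY-conjugated triazolone RNK04010.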

Assay [1] relates to MIA PaCa-2 human pancreatic carcinoma. As to the kind of experiment: MIA PaCa-2 CCK-8 proliferation assay. Particulars: Homo sapiens, MIA PaCa-2, 72 h, MIA PaCa-2 cells. Type of assay: cell-based. The procedure, abridged: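 KRAS(G12C) lines were used: MIA PaCa-2 with 2 copies, and NCI-H358 and NCI-H23 with 1 copy each. Cells were treated with 3-fold compound dilutions from 20 μM to 1.02 nM, and proliferation was read by CCK-8 absorbance. % inhibition was calculated against DMSO-treated cells after subtracting the cell-free medium blank.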

SMILES strings stand for the structures.

KRAS(G12C), sequence (P01116 1-188 isoform P01116-2 G12C): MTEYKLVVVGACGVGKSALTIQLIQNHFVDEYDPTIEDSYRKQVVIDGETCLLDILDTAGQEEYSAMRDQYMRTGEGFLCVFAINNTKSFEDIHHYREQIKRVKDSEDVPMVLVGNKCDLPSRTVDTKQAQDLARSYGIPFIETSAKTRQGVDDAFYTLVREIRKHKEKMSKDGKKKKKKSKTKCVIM

As a reminder, the EC50 is the midpoint of the concentration-response curve. A lower EC50 goes with greater potency. Take `C=CC(=O)N1CCN(c2nc(OC[C@@H]3CN(C(=O)C4CCN(Cc5ccc(-n6c(O)nnc6-c6cc(C)c(O)cc6O)cc5)CC4)CCN3C)nc3c2CCN(c2cccc4cccc(Cl)c24)C3)C[C@@H]1CC#N` [Compound 203, 2-((S)-1-acryloyl-4-(7-(8-chloronaphthalen-1-yl)-2-(((S)-4-(1-(4-(3-(2,4-dihydroxy-5-methylphenyl)-5-hydroxy-4H-1,2,4-triazol-4-yl)benzyl)piperidine-4-carbonyl)-1-methylpiperazin-2-yl)methoxy)-5,6,7,8-tetrahydropyrido[3,4-d]pyrimidin-4-yl)piperazin-2-yl)acetonitrile, trifluoroacetic acid]: the IC50 was 100 to 1000 nM on KRAS(G12C) and less than 100 nM at HSP90a protein. In assay [1], the EC50 was greater than 1000 nM.
In the same order, the values of `C=CC(=O)N1CCN(c2nc(OC[C@@H]3CC[C@H](C(=O)N4CCN(Cc5ccc(-n6c(O)nnc6-c6cc(C(C)C)c(O)cc6O)cc5)CC4)N3C)nc3c2CCN(c2cccc4cccc(Cl)c24)C3)C[C@@H]1CC#N` [Compound 324, 2-[(2S)-4-[7-(8-chloronaphthalen-1-yl)-2-{[(2S,5R)-5-[4-({4-[3-(2,4-dihydroxy-5-isopropylphenyl)-5-hydroxy-1,2,4-triazol-4-yl]phenyl}methyl)piperazine-1-carbonyl]-1-methylpyrrolidin-2-yl]methoxy}-5H,6H,8H-pyrido[3,4-d]pyrimidin-4-yl]-1-(prop-2-enoyl)piperazin-2-yl]acetonitrile] are 100 to 1000 nM, less than 100 nM and 100 to 1000 nM.
In the same order, the values of `C=CC(=O)N1CCN(c2nc(OC[C@@H]3CC[C@H](CN4CCN(C(=O)C5CCN(Cc6ccc(-n7c(C(=O)NCC(F)(F)F)nnc7-c7cc(C(C)C)c(O)cc7O)cc6)CC5)CC4)N3C)nc3c2CCN(c2cccc4cccc(Cl)c24)C3)C[C@@H]1CC#N` [Compound 310, 4-(4-{[4-(4-{[(2R,5S)-5-({[7-(8-chloronaphthalen-1-yl)-4-[(3S)-3-(cyanomethyl)-4-(prop-2-enoyl)piperazin-1-yl]-5H,6H,8H-pyrido[3,4-d]pyrimidin-2-yl]oxy}methyl)-1-methylpyrrolidin-2-yl]methyl}piperazine-1-carbonyl)piperidin-1-yl]methyl}phenyl)-5-(2,4-dihydroxy-5-isopropylphenyl)-N-(2,2,2-trifluoroethyl)-1,2,4-triazole-3-carboxamide] are less than 100 nM, less than 100 nM and less than 100 nM.
In the same order, the values of `C=CC(=O)N1CCN(c2nc(OC[C@@H]3C[C@H](N4CCC(C(=O)N5CCN(Cc6ccc(-n7c(C(=O)NCC(F)(F)F)nnc7-c7cc(C(C)C)c(O)cc7O)cc6)CC5)CC4)CN3C)nc3c2CCN(c2cccc4cccc(Cl)c24)C3)C[C@@H]1CC#N` [Compound 314, 4-{4-[(4-{1-[(3S,5S)-5-({[7-(8-chloronaphthalen-1-yl)-4-[(3S)-3-(cyanomethyl)-4-(prop-2-enoyl)piperazin-1-yl]-5H,6H,8H-pyrido[3,4-d]pyrimidin-2-yl]oxy}methyl)-1-methylpyrrolidin-3-yl]piperidine-4-carbonyl}piperazin-1-yl)methyl]phenyl}-5-(2,4-dihydroxy-5-isopropylphenyl)-N-(2,2,2-trifluoroethyl)-1,2,4-triazole-3-carboxamide] are less than 100 nM, less than 100 nM and less than 100 nM.
For the molecule `C=CC(=O)N1CCN(c2nc(OC[C@@H]3C[C@@H](NC(=O)C4CCN(Cc5ccc(-n6c(C(=O)NCC(F)(F)F)nnc6-c6cc(C(C)C)c(O)cc6O)cc5)CC4)CN3C)nc3c2CCN(c2cccc4cccc(Cl)c24)C3)C[C@@H]1CC#N` [Compound 200, N-((3R,5S)-5-(((4-((S)-4-acryloyl-3-(cyanomethyl)piperazin-1-yl)-7-(8-chloronaphthalen-1-yl)-5,6,7,8-tetrahydropyrido[3,4-d]pyrimidin-2-yl)oxy)methyl)-1-methylpyrrolidin-3-yl)-1-(4-(3-(2,4-dihydroxy-5-isopropylphenyl)-5-((2,2,2-trifluoroethyl)carbamoyl)-4H-1,2,4-triazol-4-yl)benzyl)piperidine-4-carboxamide], the IC50 on KRAS(G12C) and on HSP90a protein was less than 100 nM in each case. In assay [1], this molecule showed an EC50 of less than 100 nM.
Consider `C=CC(=O)N1CCN(c2nc(OC[C@@H]3C[C@H](NC(=O)C4CCN(C(=O)c5ccc(-n6c(O)nnc6-c6cc(C(C)C)c(O)cc6O)cc5)CC4)CN3C)nc3c2CCN(c2cccc4cccc(Cl)c24)C3)C[C@@H]1CC#N` [Compound 315, N-[(3S,5S)-5-({[7-(8-chloronaphthalen-1-yl)-4-[(3S)-3-(cyanomethyl)-4-(prop-2-enoyl)piperazin-1-yl]-5H,6H,8H-pyrido[3,4-d]pyrimidin-2-yl]oxy}methyl)-1-methylpyrrolidin-3-yl]-1-{4-[3-(2,4-dihydroxy-5-isopropylphenyl)-5-hydroxy-1,2,4-triazol-4-yl]benzoyl}piperidine-4-carboxamide], for which the IC50 on KRAS(G12C) and on HSP90a protein was less than 100 nM throughout. In assay [1], this molecule came in with an EC50 greater than 1000 nM.
For the molecule `C=CC(=O)N1CCN(c2nc(OC[C@@H]3C[C@H](C(=O)N4CCN(Cc5ccc(-n6c(O)nnc6-c6cc(C(C)C)c(O)cc6O)cc5)CC4)CN3C)nc3c2CCN(c2cccc4cccc(Cl)c24)C3)C[C@@H]1CC#N` [Compound 340, 2-[(2S)-4-[7-(8-chloronaphthalen-1-yl)-2-{[(2S,4S)-4-[4-({4-[3-(2,4-dihydroxy-5-isopropylphenyl)-5-hydroxy-1,2,4-triazol-4-yl]phenyl}methyl)piperazine-1-car-bonyl]-1-methylpyrrolidin-2-yl]methoxy}-5H,6H,8H-pyrido[3,4-d]pyrimidin-4-yl]-1-(prop-2-enoyl)piperazin-2-yl]acetonitrile], the IC50 at KRAS(G12C) and at HSP90a protein was less than 100 nM throughout. This molecule also gave an EC50 in assay [1] of 100 to 1000 nM.
Turning to `C=CC(=O)N1CCN(c2nc(OC[C@@H]3CN(C(=O)C4CCN(Cc5ccc(-n6c(C(N)=O)nnc6-c6cc(C(C)C)c(O)cc6O)cc5)CC4)CCN3C)nc3c2CCN(c2cccc4cccc(Cl)c24)C3)C[C@@H]1CC#N` [Compound 197, 4-(4-((4-((S)-3-(((4-((S)-4-acryloyl-3-(cyanomethyl)piperazin-1-yl)-7-(8-chloronaphthalen-1-yl)-5,6,7,8-tetrahydropyrido[3,4-d]pyrimidin-2-yl)oxy)methyl)-4-methylpiperazine-1-carbonyl)piperidin-1-yl)methyl)phenyl)-5-(2,4-dihydroxy-5-isopropylphenyl)-4H-1,2,4-triazole-3-carboxamide, trifluoroacetic acid], the IC50 was greater than 1000 nM on KRAS(G12C) and less than 100 nM on HSP90a protein. In assay [1], the EC50 was greater than 1000 nM.
For the molecule `C=CC(=O)N1CCN(c2nc(OC[C@@H]3C[C@H](NC(=O)C4CCN(C(=O)C5CCN(Cc6ccc(-n7c(O)nnc7-c7cc(C)c(O)cc7O)cc6)CC5)CC4)CN3C)nc3c2CCN(c2cccc4cccc(Cl)c24)C3)C[C@@H]1CC#N` [Compound 312, N-[(3S,5S)-5-({[7-(8-chloronaphthalen-1-yl)-4-[(3S)-3-(cyanomethyl)-4-(prop-2-e-noyl)piperazin-1-yl]-5H,6H,8H-pyrido[3,4-d]pyrimidin-2-yl]oxy}methyl)-1-meth-ylpyrrolidin-3-yl]-1-[1-({4-[3-(2,4-dihydroxy-5-methylphenyl)-5-hydroxy-1,2,4-triazol-4-yl]phenyl}methyl)piperidine-4-carbonyl]piperidine-4-carboxamide], the IC50 on KRAS(G12C) and at HSP90a protein was less than 100 nM throughout. In assay [1], this molecule yielded an EC50 greater than 1000 nM.
